Assay results taken from patent US5866583A, “Substituted 2,4-diaminopyrimidines” (Hoffmann-La Roche Inc., priority 1996, dated 1999).

Experiments:
[1] = target: purified DHFR of the reference strain S. aureus ATCC 25923 (Staphylococcus aureus, UniProt P0A017); assay: Inhibition of purified DHFR of reference strain S. aureus ATCC 25923; assay type: biochemical
From the text: (§1) The inhibition of this enzyme was taken as a measurement of the antibacterial activity.

[2] = target: purified DHFR of the multiresistant strain S. aureus 157/4696 (Staphylococcus aureus, UniProt P13955); assay: Inhibition of purified DHFR of multiresistant strain S. aureus 157/4696; assay type: biochemical
From the text: as §1

[3] = target: T1, purified DHFR of the opportunistic pathogen P. carinii (Pneumocystis carinii, UniProt P16184); assay: biochemical; conditions: IC50 determined by means of a graph
T1 sequence (P16184 1-206): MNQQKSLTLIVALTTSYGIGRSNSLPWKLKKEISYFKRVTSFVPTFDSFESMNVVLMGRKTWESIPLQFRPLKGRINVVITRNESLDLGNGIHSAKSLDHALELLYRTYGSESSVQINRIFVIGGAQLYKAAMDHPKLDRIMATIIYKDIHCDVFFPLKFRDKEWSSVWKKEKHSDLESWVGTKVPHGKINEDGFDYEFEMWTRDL
From the text: as §1

| Structure (SMILES) | IC50 [1] [nM] | IC50 [2] [nM] | IC50 [3] [nM] |
| --- | --- | --- | --- |
| COc1cc(Cc2cnc(N)nc2N)cc(/C=C/C(=O)N2CCc3ccccc3C2c2ccc(C)nc2)c1OC (racemic) [Example 32, (E)-(RS)-3-[5-(2,4-Diamino-pyrimidin-5-ylmethyl)-2,3-dimethoxy-phenyl]-1-[1-(6-methyl-pyridin-3-yl)-3,4-dihydro-1H-isoquinolin-2-yl]-propenone] | 1.8 | 1.3 | 10000 |
| COc1cc(Cc2cnc(N)nc2N)cc(/C=C/C(=O)N2CCc3ccccc3[C@@H]2c2ccccn2)c1OC [Example 1, (E)-(R)-3-[5-(2,4-diamino-pyrimidin-5-ylmethyl)-2,3-dimethoxy-phenyl]-1-(1-pyridin-2-yl-3,4-dihydro-1H-isoquinolin-2-yl)-propenone] | 5 | 8 | 8000 |
| COc1cc(Cc2cnc(N)nc2N)cc(/C=C/C(=O)N2CCc3ccccc3C2c2ccc(C)cc2)c1OC (racemic) [Example 16, (E)-(RS)-3-[5-(2,4-Diamino-pyrimidin-5-ylmethyl)-2,3-dimethoxy-phenyl]-1-[1-(4-methyl-phenyl)-3,4-dihydro-1H-isoquinolin-2-yl]-propenone] | 0.2 | 4.8 | 330 |
| COc1cc(Cc2cnc(N)nc2N)cc(/C=C/C(=O)N2CCc3ccccc3C2c2ccc(C#N)cc2)c1OC (racemic) [Example 23] | 0.5 | 0.9 | 10000 |
| COc1cc(Cc2cnc(N)nc2N)cc(/C=C/C(=O)N2CCc3ccccc3C2c2ccccn2)c1OC (racemic) [Example 3, (E)-(RS)-3-[5-(2,4-Diamino-pyrimidin-5-ylmethyl)-2,3-dimethoxy-phenyl]-1-(1-pyridin-2-yl-3,4-dihydro-1H-isoquinolin-2-yl)-propenone] | 9 | 9.5 | 17000 |
| COc1cc(Cc2cnc(N)nc2N)cc(/C=C/C(=O)N2CCc3ccccc3C2c2ccc(S(C)(=O)=O)cc2)c1OC (racemic) [Example 40, (E)-(R,S)-3-[5-(2,4-Diamino-pyrimidin-5-ylmethyl)-2,3-dimethoxy-phenyl]-1-[1-(4-methanesulphonyl-phenyl)-3,4-dihydro-1H-isoquinolin-2-yl]-propenone] | 0.7 | 1.2 | 550 |
| COc1cc(Cc2cnc(N)nc2N)cc(/C=C/C(=O)N2CCc3ccccc3C2c2cccs2)c1OC (racemic) [Example 27, (E)-(RS)-3-[5-(2,4-Diamino-pyrimidin-5-ylmethyl)-2,3-dimethoxy-phenyl]-1-(1-thiophen-2-yl-3,4-dihydro-1H-isoquinolin-2-yl)-propenone] | 1.6 | 1.8 | 3800 |
| COc1ccc2c(c1)C(c1ccccn1)N(C(=O)/C=C/c1cc(Cc3cnc(N)nc3N)cc(OC)c1OC)CC2 (racemic) [Example 8, (E)-(RS)-3-[5-(2,4-Diamino-pyrimidin-5-ylmethyl)-2,3-dimethoxy-phenyl]-1-(7-methoxy-1-pyridin-2-yl-3,4-dihydro-1H-isoquinolin-2-yl)-propenone] | 5 | 9 | 5000 |
| COc1cc(Cc2cnc(N)nc2N)cc(/C=C/C(=O)N2CCc3ccccc3C2c2ccc(Cl)nc2)c1OC (racemic) [Example 36, (E)-(RS)-1-[1-(6-Chloro-pyridin-3-yl)-3,4-dihydro-1H-isoquinolin-2-yl]-3-[5-(2,4-diamino-pyrimidin-5-ylmethyl)-2,3-dimethoxy-phenyl]-propenone] | 0.8 | 3 | 6200 |
| COc1cc(Cc2cnc(N)nc2N)cc(/C=C/C(=O)N2CCc3ccccc3C2c2ccc(C(N)=O)nc2)c1OC (racemic) [Example 39, (E)-(R,S)-5-[2-[3-[5-(2,4-Diamino-pyrimidin-5-ylmethyl)-2,3-dimethoxy-phenyl]-acryloyl]-1,2,3,4-tetrahydro-isoquinolin-1-yl]-pyridine-2-carboxamide] | 1.2 | 1.8 | 30000 |
| COc1cc(Cc2cnc(N)nc2N)cc(/C=C/C(=O)N2CCc3ccccc3C2c2ccc(Cl)cn2)c1OC (racemic) [Example 34, (E)-(RS)-1-[1-(5-Chloro-pyridin-2-yl)-3,4-dihydro-1H-isoquinolin-2-yl]-3-[5-(2,4-diamino-pyrimidin-5-ylmethyl)-2,3-dimethoxy-phenyl]-propenone] | 2.4 | 1.7 | 10000 |
| COc1cc(Cc2cnc(N)nc2N)cc(/C=C/C(=O)N2CCc3ccccc3C2c2ccc(O)cc2)c1OC (racemic) [Example 21, (E)-(RS)-3-[5-(2,4-Diamino-pyrimidin-5-ylmethyl)-2,3-dimethoxy-phenyl]-1-[1-(4-hydroxy-phenyl)-3,4-dihydro-1H-isoquinolin-2-yl]-propenone] | 5.5 | 13 | 380 |
